Literature values as cited in patent publication US11771690B2, “Solid particle, preparation method therefor, and pharmaceutical composition containing solid particle” (SHANGHAI WD PHARMACEUTICAL CO., LTD, priority 2018, dated 2023).

solubility in water: insoluble
Structure (SMILES): C[C@]12C=CC(=O)N[C@@H]1CC[C@@H]1[C@@H]2CC[C@]2(C)[C@@H](C(=O)Nc3cc(C(F)(F)F)ccc3C(F)(F)F)CC[C@@H]12 [Dutasteride, (5α,17β)-N-{2,5-bis(trifluoromethyl)phenyl}-3-oxo-4-azaandrost-1-ene-17-carboxamide]
